Results from ChEMBL document CHEMBL1201862, “PubChem BioAssay data set” (2004).
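96-well plates; 48 h exposure; 5 concentrations. Endpoints by linear interpolation between flanking doses. Not reached: highest tested concentration assigned. Abbreviation: GI50, concentration required for 50% inhibition of growth.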 Active and inactive are the calls of the source. Cut-off read from the data, not from the text of the source: active = GI50 up to about 1.1 µM and inactive = higher.

Assays:
Assay in all cases: inhibition of tumour cell growth, NCI panel, 48 h
DU-145 = system: DU-145
SK-MEL-2 = system: SK-MEL-2
SF-295 = system: SF-295
ACHN = system: ACHN
NCI-H460 = system: NCI-H460
HOP-62 = system: HOP-62
PC-3 = system: PC-3
U-251 = system: U-251
NCI-H226 = system: NCI-H226
SF-539 = system: SF-539
OVCAR-8 = system: OVCAR-8
MOLT-4 = system: MOLT-4
MCF7 = system: MCF7
EKVX = system: EKVX
SN12C = system: SN12C
HCT-116 = system: HCT-116
Hs-578T = system: Hs-578T
HT-29 = system: HT-29
HL-60 = system: HL-60

Measured: GI50

Cn1c2ccccc2c2c3c(c4c5ccccc5n(C)c4c21)C(=O)N(Cc1ccccc1)C3=O
inactive: DU-145 > 100 µM | SK-MEL-2 > 100 µM | SF-295 > 100 µM | ACHN > 100 µM | NCI-H460 > 100 µM | HOP-62 19.3 µM | PC-3 > 100 µM | U-251 > 100 µM | NCI-H226 > 100 µM | SF-539 > 100 µM | OVCAR-8 > 100 µM | MOLT-4 > 100 µM | MCF7 > 100 µM | EKVX > 100 µM | SN12C > 100 µM | HCT-116 > 100 µM | Hs-578T > 100 µM | HT-29 > 100 µM

C=CCCC1CCCNC1=S (centres undefined)
inactive: DU-145 > 100 µM | SK-MEL-2 > 100 µM | SF-295 > 100 µM | ACHN > 100 µM | NCI-H460 > 100 µM | HOP-62 > 100 µM | PC-3 > 100 µM | U-251 > 100 µM | NCI-H226 > 100 µM | SF-539 > 100 µM | OVCAR-8 > 100 µM | MCF7 > 100 µM | EKVX > 100 µM | SN12C > 100 µM | HCT-116 > 100 µM | Hs-578T > 100 µM | HT-29 > 100 µM

CC(C)CCNC(=O)C(CC(C)C)NC(=O)[C@H]1O[C@@H]1C(=O)O (some centres undefined)
inactive: DU-145 > 100 µM | SF-295 > 100 µM | NCI-H460 > 100 µM | HOP-62 > 100 µM | PC-3 > 100 µM | U-251 > 100 µM | NCI-H226 > 100 µM | SF-539 > 100 µM | OVCAR-8 > 100 µM | MOLT-4 > 100 µM | MCF7 > 100 µM | EKVX > 100 µM | SN12C > 100 µM | HCT-116 > 100 µM | Hs-578T > 100 µM | HT-29 > 100 µM

CC(=O)OCC1OC(Sc2nc(-c3ccc(C)cc3)c(C#N)c(=O)n2C2OC(COC(C)=O)C(OC(C)=O)C(OC(C)=O)C2OC(C)=O)C(OC(C)=O)C(OC(C)=O)C1OC(C)=O (centres undefined)
inactive: DU-145 > 100 µM | SK-MEL-2 > 100 µM | SF-295 > 100 µM | ACHN > 100 µM | NCI-H460 > 100 µM | HOP-62 > 100 µM | PC-3 > 100 µM | U-251 > 100 µM | NCI-H226 > 100 µM | SF-539 > 100 µM | OVCAR-8 > 100 µM | MOLT-4 > 100 µM | MCF7 > 100 µM | EKVX > 100 µM | SN12C > 100 µM | HCT-116 > 100 µM | Hs-578T > 100 µM | HT-29 > 100 µM

Cc1ccc(-c2n[nH]c(CC#N)n2)cc1
inactive: DU-145 > 100 µM | SK-MEL-2 > 100 µM | SF-295 > 100 µM | ACHN > 100 µM | HL-60 > 100 µM | NCI-H460 > 100 µM | HOP-62 > 100 µM | PC-3 > 100 µM | U-251 > 100 µM | SF-539 > 100 µM | OVCAR-8 > 100 µM | MOLT-4 > 100 µM | MCF7 > 100 µM | EKVX 8.57 µM | SN12C > 100 µM | HCT-116 > 100 µM | Hs-578T 39.7 µM | HT-29 > 100 µM

COc1ccc(/C=C/c2cc(OC)c(OC)c(OC)c2)cc1O[Si](C)(C)C(C)(C)C
inactive: DU-145 7.11 µM | SK-MEL-2 7.8 µM | SF-295 26 µM | ACHN 7.87 µM | NCI-H460 4.15 µM | HOP-62 5.93 µM | PC-3 4.72 µM | U-251 3.11 µM | NCI-H226 5.19 µM | SF-539 2.32 µM | OVCAR-8 2.74 µM | MOLT-4 4.22 µM | MCF7 3.6 µM | EKVX 5.81 µM | SN12C 7.16 µM | HCT-116 2.77 µM | Hs-578T 3.15 µM | HT-29 37.9 µM

N=c1c2sc3nc4ccccc4n3c2ncn1Cc1ccccc1
inactive: DU-145 > 100 µM | SK-MEL-2 > 100 µM | SF-295 > 100 µM | ACHN > 100 µM | HOP-62 > 100 µM | PC-3 > 100 µM | U-251 > 100 µM | NCI-H226 > 100 µM | SF-539 > 100 µM | OVCAR-8 > 100 µM | MOLT-4 > 100 µM | MCF7 > 100 µM | EKVX > 100 µM | HCT-116 > 100 µM | Hs-578T > 100 µM

CC(=O)NC1C(OCc2ccccc2)OC(CO)C(O)C1OCC(=O)N1CCCC1C(=O)N[C@@H](CCC(=O)NCCCCNc1c2ccccc2nc2cccc([N+](=O)[O-])c12)C(N)=O (some centres undefined)
inactive: DU-145 31.8 µM | SK-MEL-2 15.4 µM | SF-295 53.8 µM | ACHN 26.6 µM | NCI-H460 21 µM | HOP-62 37.9 µM | PC-3 18.7 µM | U-251 18.9 µM | NCI-H226 74 µM | SF-539 77.4 µM | OVCAR-8 31 µM | MOLT-4 32.5 µM | MCF7 9.1 µM | EKVX 43.3 µM | SN12C 23.7 µM | HCT-116 22.9 µM | Hs-578T 21.1 µM | HT-29 16.7 µM

CSc1ccc(/C=C2\N=C(c3ccccc3)N(/N=C/c3cc4cc(C)ccc4nc3Cl)C2=O)cc1
inactive: DU-145 17.8 µM | SK-MEL-2 16.8 µM | SF-295 17.9 µM | ACHN 16.3 µM | HL-60 22 µM | NCI-H460 20.7 µM | HOP-62 33.2 µM | PC-3 16.9 µM | U-251 20 µM | SF-539 16.5 µM | OVCAR-8 16.1 µM | MOLT-4 13.5 µM | MCF7 11.4 µM | EKVX 32.4 µM | SN12C 17.7 µM | HCT-116 13.6 µM | Hs-578T 23.1 µM | HT-29 23.1 µM

COc1ccc(C(=O)C(Br)C(Br)C(=O)O)cc1 (centres undefined)
inactive: DU-145 80.2 µM | SK-MEL-2 39 µM | SF-295 > 100 µM | ACHN 44.2 µM | NCI-H460 36.3 µM | HOP-62 36.6 µM | PC-3 56.5 µM | U-251 35.3 µM | NCI-H226 > 100 µM | SF-539 21.4 µM | OVCAR-8 32.7 µM | MOLT-4 14 µM | MCF7 35.8 µM | EKVX 53.6 µM | SN12C 47.2 µM | HCT-116 20.8 µM | Hs-578T 35.2 µM | HT-29 15.6 µM

O=[N+]([O-])c1ccc(N2N=C(c3c(O)ccc4ccccc34)CC2c2ccc(Cl)cc2)c([N+](=O)[O-])c1 (centres undefined)
inactive: DU-145 19.5 µM | SK-MEL-2 17.8 µM | SF-295 4.59 µM | ACHN 27.4 µM | NCI-H460 29.9 µM | HOP-62 24.4 µM | PC-3 6.4 µM | U-251 30 µM | NCI-H226 20.9 µM | SF-539 30.1 µM | OVCAR-8 21.7 µM | MOLT-4 10.1 µM | MCF7 26.4 µM | SN12C 33.4 µM | HCT-116 15.3 µM | Hs-578T 27.4 µM | HT-29 20.1 µM

O=C1CCC(=O)N1n1c(Cc2ccccc2)n[nH]c1=O
inactive: DU-145 > 100 µM | SK-MEL-2 > 100 µM | SF-295 > 100 µM | ACHN > 100 µM | NCI-H460 > 100 µM | HOP-62 > 100 µM | PC-3 > 100 µM | U-251 > 100 µM | NCI-H226 > 100 µM | OVCAR-8 > 100 µM | MOLT-4 > 100 µM | MCF7 > 100 µM | EKVX > 100 µM | SN12C > 100 µM | HCT-116 > 100 µM | Hs-578T > 100 µM | HT-29 > 100 µM

CN(C)S(=O)(=O)c1ccc2c(c1)/C(=C1/Nc3ccccc3C1=O)C(=O)N2
inactive: DU-145 24.9 µM | SK-MEL-2 18.4 µM | SF-295 12.9 µM | ACHN 12.1 µM | NCI-H460 24.7 µM | HOP-62 15.7 µM | PC-3 23 µM | U-251 10.6 µM | NCI-H226 25.2 µM | OVCAR-8 32.5 µM | MOLT-4 14.1 µM | MCF7 24.8 µM | EKVX 24 µM | SN12C 38 µM | HCT-116 23.1 µM | Hs-578T 14.4 µM | HT-29 > 100 µM

CC(O)CNC1=CC(=O)C(=O)c2ccccc21 (centres undefined)
inactive: DU-145 15.5 µM | SK-MEL-2 16.4 µM | SF-295 13.5 µM | ACHN 18.5 µM | HL-60 27.4 µM | NCI-H460 14.3 µM | HOP-62 18.2 µM | PC-3 22.3 µM | U-251 15.8 µM | SF-539 19.2 µM | MOLT-4 23 µM | MCF7 19.5 µM | EKVX 18.6 µM | SN12C 17.1 µM | HCT-116 16.1 µM | Hs-578T 22.8 µM

CN1CCC(n2[nH]c(-c3ccccc3)c(Cc3ccccc3)c2=O)CC1 [BENZPIPERYLON]
inactive: DU-145 97.3 µM | SK-MEL-2 > 100 µM | SF-295 > 100 µM | ACHN > 100 µM | NCI-H460 49.5 µM | HOP-62 > 100 µM | PC-3 > 100 µM | U-251 > 100 µM | NCI-H226 > 100 µM | SF-539 57.1 µM | OVCAR-8 > 100 µM | MOLT-4 19.5 µM | MCF7 > 100 µM | EKVX > 100 µM | SN12C > 100 µM | HCT-116 75.9 µM | Hs-578T 50.9 µM | HT-29 87.9 µM
